Columns and labels:
[1] = molecular target: T1, kinase domain protein of RC kinase (Homo sapiens, UniProt Q56UN5); assay: Enzymatic assay for kinase inhibitory activity (Crebtide substrate, LANCE read-out); type: biochemical; settings: compound at 1 μM
T1 sequence (Q56UN5 1061-1324 limits assumed): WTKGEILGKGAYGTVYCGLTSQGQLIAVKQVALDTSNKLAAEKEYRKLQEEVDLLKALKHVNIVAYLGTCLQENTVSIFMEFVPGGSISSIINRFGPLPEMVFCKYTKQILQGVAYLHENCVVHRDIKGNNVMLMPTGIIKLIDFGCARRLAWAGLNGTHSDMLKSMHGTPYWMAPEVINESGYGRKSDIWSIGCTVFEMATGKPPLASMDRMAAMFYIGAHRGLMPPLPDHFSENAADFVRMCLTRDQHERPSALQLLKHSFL
Experimental: Solutions of a test compound, Crebtide (a substrate), a kinase, and ATP were prepared using 1×MAPK Buffer (50 mM HEPES, 1 mM EGTA, […], 10 mM MgCl2, 2 mM DTT, and 0.01% Tween 20).
To each well, the test compound (1 μL) was first added (in duplicate) to reach a final concentration of 1 μM or 1×IC50 of the compound. The kinase (5 μl) was then added to each well to reach a final concentration of […] for the kinase domain or […] for the full-length domain. Each plate included a positive and negative controls in duplicate wells. Crebtide (2.5 μL) was then added to each well in duplicate to reach a final concentration of 50 nM. If the full-length kinase was used, the plates were incubated for 45 min at room temperature before proceeding further. ATP (2.5 μL) was added to each well to reach a final concentration of 1 μM for the kinase domain and 3 μM for the full-length.
After the addition of ATP, the plates were incubated for 45 min at room temperature. During the incubation, an EDTA solution (40 mM) and anti-Crebtide ([…]) were prepared. Additionally, a detection buffer stock solution was diluted ten fold before use.
After the incubation, the anti-Crebtide (5 μL) and EDTA (5 μL) were added to each well to reach their final concentrations of […] and 10 mM, respectively. The plates were allowed to develop at room temperature for 45 min. The plates were then read at 665 nm and 615 nm using Perkin Elmer Lance machine.
The biological results of inhibition of the kinase domain protein of RC kinase are summarized in Tables 2 and 3, wherein A represents at least 50% inhibition of the RC kinase activity at 1 μM; B represents no greater than 50% but at least 20% inhibition of the RC kinase activity at 1 μM; C represents no greater than 20% but at least 5% inhibition of the RC kinase activity at 1 μM; and D represents no greater than 5% inhibition of the RC kinase activity at 1 μM.

Structure (SMILES) | melting point [°C] | inhibition at 1 µM [1] [%] | Activity (inhibition of the RC kinase activity) [1] | Activity (inhibition of the RC kinase activity) ([1]; 1 µM)
N#Cc1c(Nc2cccc(Cl)c2)n[nH]c1/N=C/c1c[nH]nc1-c1ccc(F)cc1 [Compound A1] | 127 to 132 | ≤ 5 |  | 
N#Cc1c(Nc2cccc(Cl)c2)n[nH]c1/N=C/c1ccc(Cl)cc1Cl [Compound A4] | 277 to 281 | ≤ 5 |  | 
N#Cc1c(Nc2ccccc2)n[nH]c1/N=C/c1ccc(O)c([N+](=O)[O-])c1 [Compound A10] | 284 to 286 | 5 to 20 |  | 
N#Cc1c(Nc2cccc(Cl)c2)n[nH]c1/N=C/c1ccccc1 [Compound A11] | 260 to 264 | 5 to 20 |  | 
N#Cc1c(Nc2cccc(Cl)c2)n[nH]c1/N=C/c1ccc(Cl)cc1 [Compound A12] | 283 to 286 | 20 to 50 |  | 
COc1ccc(/C=N/c2[nH]nc(Nc3cccc(Cl)c3)c2C#N)cc1 [Compound A13] | 263 to 266 | 5 to 20 |  | 
N#Cc1c(Nc2ccccc2)n[nH]c1/N=C/c1ccc(O)cc1 [Compound A22] | 241 to 245 | ≤ 5 |  | 
COc1ccccc1/C=N/c1[nH]nc(Nc2cccc(Cl)c2)c1C#N [Compound A23] | 239 to 241 | 20 to 50 |  | 
COc1ccccc1/C=N/c1[nH]nc(Nc2ccccc2)c1C#N [Compound A26] | 202 to 206 | 5 to 20 |  | 
N#Cc1c(Nc2cccc(Cl)c2)n[nH]c1/N=C/c1cc(F)cc2c1OCOC2 [Compound A29, 3-((3-chlorophenyl)amino)-5-(((6-fluoro-4H-benzo[d][1,3]dioxin-8-yl)methylene)amino)-1H-pyrazole-4-carbonitrile] | 248 to 251 | 5 to 20 |  | 
N#Cc1c(Nc2ccccc2)n[nH]c1/N=C/c1cc(F)cc2c1OCOC2 [Compound A30] | 247 to 251 | 5 to 20 |  | 
N#Cc1c(Nc2ccc(Cl)cc2)n[nH]c1/N=C/c1ccc(O)cc1 [Compound A32] | 286 to 288 | 5 to 20 |  | 
N#Cc1c(Nc2ccc(Cl)cc2)n[nH]c1/N=C/c1ccc(Cl)cc1 [Compound A35] | 296 to 300 | ≤ 5 |  | 
COc1ccccc1/C=N/c1[nH]nc(Nc2ccc(Cl)cc2)c1C#N [Compound A38] | 262 to 265 | ≤ 5 |  | 
N#Cc1c(Nc2ccc(Cl)cc2)n[nH]c1/N=C/c1cccc2ccccc12 [Compound A40] | 289 to 292 | ≤ 5 |  | 
COc1ccc(Nc2n[nH]c(/N=C/c3ccc(O)c([N+](=O)[O-])c3)c2C#N)cc1 [Compound A42] | 274 to 275 | ≤ 5 |  | 
COc1ccc(/C=N/c2[nH]nc(Nc3ccc(OC)cc3)c2C#N)cc1 [Compound A43] | 246 to 250 | ≤ 5 |  | 
COc1ccc(Nc2n[nH]c(/N=C/c3ccc([N+](=O)[O-])cc3)c2C#N)cc1 [Compound A46] | 242 to 248 | ≤ 5 |  | 
CC(C)(C)c1ccc(Nc2n[nH]c(/N=C/c3ccc(Cl)cc3)c2C#N)cc1 [Compound A53] | 288 to 290 | 5 to 20 |  | 
N#Cc1c(Nc2cccc(Cl)c2)n[nH]c1/N=C/c1ccc(Oc2ccc(C(F)(F)F)cn2)cc1 [Compound A61] | 264 to 268 | 5 to 20 |  | 
Cn1nc(CSc2ccccc2)c(/C=N/c2[nH]nc(Nc3cccc(Cl)c3)c2C#N)c1Cl [Compound A62] | 194 to 202 | 5 to 20 |  | 
N#Cc1c(Nc2cccc(Cl)c2)n[nH]c1/N=C/C1CCCN1C(=O)OCc1ccccc1 (centres unmarked) [Compound A63] | 65 to 72 | 5 to 20 |  | 
N#Cc1c(Nc2cccc(Cl)c2)n[nH]c1/N=C/c1cccn1S(=O)(=O)c1ccccc1 [Compound A64] | 217 to 225 | 20 to 50 |  | 
N#Cc1c(Nc2cccc(Cl)c2)n[nH]c1/N=C/c1ccc(S(F)(F)(F)(F)F)cc1 [Compound A65, 3-((3-chlorophenyl)amino)-5-((4-(pentafluorolthio)benzylidene)amino)-1H-pyrazole-4-carbonitrile] | 200 to 216 | 5 to 20 |  | 
NC(=O)c1c(Nc2ccccc2Cl)n[nH]c1/N=C/c1ccccc1 [Compound B115] |  |  | B (no greater than 50% but at least 20% inhibition of the RC kinase activity at 1 μM) | 
NC(=O)c1c(Nc2ccccc2Cl)n[nH]c1/N=C/c1cc(O)ccc1[N+](=O)[O-] [Compound B116] |  |  | C (no greater than 20% but at least 5% inhibition of the RC kinase activity at 1 μM) | 
NC(=O)c1c(Nc2cccc(Cl)c2)n[nH]c1/N=C/c1ccc(Oc2ncccn2)cc1 [Compound B123] |  |  |  | B (no greater than 50% but at least 20% inhibition of the RC kinase activity at 1 μM)

Now from value to compound, other results behind:

melting point [°C] | inhibition at 1 µM [1] [%] | Structure (SMILES) | Activity (inhibition of the RC kinase activity) [1] | Activity (inhibition of the RC kinase activity) ([1]; 1 µM)
286 to 288 | 20 to 50 | N#Cc1c(Nc2cccc(Cl)c2)n[nH]c1N=Cc1ccc(O)c([N+](=O)[O-])c1 [Compound A5, 3-((3-chlorophenyl)amino)-5-((4-hydroxy-3-nitrobenzylidene)amino)-1H-pyrazole-4-carbonitrile] |  | 
276 to 278 | 5 to 20 | N#Cc1c(Nc2ccccc2)n[nH]c1/N=C/c1ccc(Cl)cc1 [Compound A7] |  | 
259 to 263 | 5 to 20 | N#Cc1c(Nc2ccccc2)n[nH]c1/N=C/c1cccc2ccccc12 [Compound A8] |  | 
257 to 260 | 20 to 50 | N#Cc1c(Nc2ccccc2)n[nH]c1/N=C/c1ccccc1 [Compound A9] |  | 
279 to 282 | 5 to 20 | N#Cc1c(Nc2cccc(Cl)c2)n[nH]c1/N=C/c1ccc(C(F)(F)F)cc1 [Compound A15, 3-((3-chlorophenyl)amino)-5-((4-(trifluoromethyl)benzylidene)amino)-1H-pyrazole-4-carbonitrile] |  | 
290 to 294 | 5 to 20 | N#Cc1c(Nc2ccccc2)n[nH]c1/N=C/c1ccc([N+](=O)[O-])cc1 [Compound A19] |  | 
242 to 245 | ≤ 5 | N#Cc1c(Nc2cccc(Cl)c2)n[nH]c1/N=C/c1ccc(O)cc1 [Compound A20] |  | 
208 to 214 | 5 to 20 | COc1cc(/C=N/c2[nH]nc(Nc3ccccc3)c2C#N)ccc1O [Compound A21, 5-((4-hydroxy-3-methoxybenzylidene)amino)-3-(phenylamino)-1H-pyrazole-4-carbonitrile] |  | 
290 to 291 | ≤ 5 | COc1ccc(/C=N/c2[nH]nc(Nc3ccc(Cl)cc3)c2C#N)cc1 [Compound A33] |  | 
220 to 228 | ≤ 5 | N#Cc1c(NC2CC2)n[nH]c1/N=C/c1ccc(O)cc1 [Compound A48, 3-(cyclopropylamino)-5-((4-hydroxybenzylidene)amino)-1H-pyrazole-4-carbonitrile] |  | 
193 to 197 | 5 to 20 | COc1ccc(Nc2n[nH]c(/N=C/c3ccc(O)cc3)c2C#N)cc1 [Compound A54] |  | 
210 to 220 | 5 to 20 | COc1cc(/C=N/c2[nH]nc(Nc3cccc(Cl)c3)c2C#N)ccc1OCc1cnc(Cl)s1 [Compound A60] |  | 
308 to 310 | 20 to 50 | N#Cc1c(Nc2cccc(Cl)c2)n[nH]c1/N=C/c1ccc(-n2cnc3ccccc32)cc1 [Compound A67] |  | 
343 to 347 | 5 to 20 | N#Cc1c(Nc2cccc(Cl)c2)n[nH]c1/N=C/c1c[nH]c2c(F)c(F)c(F)c(F)c12 [Compound A68] |  | 
189 to 197 | ≤ 5 | COc1ccc(C(F)(F)F)cc1/C=N/c1[nH]nc(Nc2cccc(Cl)c2)c1C#N [Compound A75] |  | 
234 to 239 | 5 to 20 | N#Cc1c(Nc2cccc(Cl)c2)n[nH]c1/N=C/c1cccc(Oc2ncccn2)c1 [Compound A76] |  | 
273 to 279 | ≤ 5 | N#Cc1c(Nc2cccc(Cl)c2)n[nH]c1/N=C/c1ccc(N2CCOCC2)nc1 [Compound A79] |  | 
 | ≥ 50 | NC(=O)c1c(Nc2cccc(Cl)c2)n[nH]c1/N=C/c1cc[nH]c1 [Compound B111] |  | 

— patent US9365556B2, “3,5-diaminopyrazole kinase inhibitors” (Axikin Pharmaceuticals, Inc., priority 2012, dated 2016)
